Reference: paper PMC4039064, “An inhibitor-driven study for enhancing the selectivity of indirubin derivatives towards leishmanial Glycogen Synthase Kinase-3 over leishmanial cdc2-related protein kinase 3” (Parasites & Vectors, 2014)

Key:
[1] = target: T1, LGSK-3 (leishmanial Glycogen Synthase Kinase-3 short) (Leishmania donovani, UniProt A6N857); experiment: luminescent kinase assay (Promega); format: biochemical; details: read-out: L GSK-3
T1 construct: recombinant, purified from L. donovani over-expressing transfectants (homologous expression); A6N857 is printed for the L. donovani homology model and alignment
T1 sequence (A6N857 1-355): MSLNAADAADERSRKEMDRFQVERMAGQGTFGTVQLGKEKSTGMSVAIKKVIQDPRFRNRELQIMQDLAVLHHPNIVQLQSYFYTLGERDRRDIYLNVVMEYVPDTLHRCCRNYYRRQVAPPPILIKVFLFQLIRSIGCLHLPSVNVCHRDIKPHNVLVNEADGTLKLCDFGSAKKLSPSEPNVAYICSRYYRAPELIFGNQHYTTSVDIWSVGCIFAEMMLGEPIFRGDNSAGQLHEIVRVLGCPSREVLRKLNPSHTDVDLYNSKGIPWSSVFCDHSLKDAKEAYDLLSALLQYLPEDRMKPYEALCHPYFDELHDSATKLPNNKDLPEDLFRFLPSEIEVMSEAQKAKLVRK

[2] = target: T2, LCRK3 (cdc2-related protein kinase 3) (Leishmania mexicana, UniProt O15851); experiment: luminescent kinase assay (Promega); format: biochemical; details: read-out: L CRK3
T2 construct: gene crk3; recombinant, purified from transgenic L. mexicana promastigotes (homologous expression, gift of K. Grant)
T2 sequence (O15851 1-311): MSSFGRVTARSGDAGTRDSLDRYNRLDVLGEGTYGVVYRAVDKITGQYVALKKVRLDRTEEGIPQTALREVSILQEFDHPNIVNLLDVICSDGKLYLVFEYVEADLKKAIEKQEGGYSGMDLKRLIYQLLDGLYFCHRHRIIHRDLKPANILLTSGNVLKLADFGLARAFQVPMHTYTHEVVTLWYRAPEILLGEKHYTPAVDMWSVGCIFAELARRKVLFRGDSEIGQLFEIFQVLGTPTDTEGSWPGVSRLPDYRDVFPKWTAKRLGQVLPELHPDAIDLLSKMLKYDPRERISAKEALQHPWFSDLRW

SMILES: Cc1cc2c(cc1Br)NC(=O)C2=C1Nc2ccccc2C1=NO [5-Me-6-BIO, 5-methyl-6-bromoindirubin-3′-oxime]
- IC50 [1]: 90 ± 20 nM
- IC50 [2]: 650 ± 90 nM
